Results published in patent publication US20250145693A1, “HERV-K ANTIBODY, CELL, VACCINE, AND DRUG THERAPEUTICS” (priority 2021, published 2025).

Key:
[1] = test system: MDA-MB-231, Hs578T, and MCF-7 breast cancer cells; assay: proliferation and drug sensitivity of breast cancer cells after HERV-K KD; format: cell-based, human; settings: for sensitivity of breast cancer cells toward drug: MCF-7 and Hs578T stably transduced with shRNAenv vs shRNAc or parent cells
Excerpt: Here, the inventors further determined the effects of HERV-K env gene KD in breast cancer cells treated with breast cancer chemotherapy drugs.

[2] = test system: HCT15, SW48 and HCT116 cells; assay: HERV-K expression in CRC cell lines; format: cell-based
Excerpt: The expression of HERV-K was detected in several CRC cell lines and tissues, but not in benign colon tissues. […] The forced overexpression of HERV-K with these agents that induce expression of HERV-K by innate immune response (Poly I:C treatment) or LTR hypomethylation (5-Aza) would provoke the cancer cells to increase production of a target that would make them more susceptible to targeted therapy to include targeted immunotherapy.

breast cancer cell lines [3] = assay: expression of HERV-K and signaling proteins after H2O2 or paclitaxel; format: cell-based, human; settings: for expression of signaling proteins by immunoblot: paclitaxel (Tax, 0.1 μM) or H2O2 (5 μM or 10 μM), vs parent cells
breast cancer cell lines [4] = test system: breast cancer cell lines
[5] = test system: MCF-7, HS578T, MDA-MB-231 cells; assay: transwell migration and invasion; format: cell-based, human; parameters: dose or concentration left out as unconfirmed
Protocol: The effects of KD of HERV-K env on migration and invasion were investigated using transwell plates. After transwell plates (8 μm) were rehydrated for 2 hours, 2.5×10^4 cells were seeded into the transwell and cultured. The transwell was then removed and the cells that had migrated into the lower chamber were counted. For the invasion assay, transwells were coated with Matrigel, and cells remaining in the upper chamber were removed with a cotton swab. The invaded cells on the reverse side of the Matrigel were counted under a light microscope (40× magnification) after the cells were fixed with methanol and stained with Giemsa. Ten random fields were counted. The average number of invaded cells per field was presented as mean±SD (n=10 fields). Triplicate assays were performed for each experiment.

[6] = test system: MCF-7 and Hs578T breast cancer cell lines; assay: cell cycle distribution by FACS; format: cell-based, human; settings: Hs578T cells, especially in the shRNAenv cells
[7] = test system: HERV-K envelope surface fusion protein; assay: ELISA binding to HERV-K envelope surface fusion protein; parameters: species or system human
Excerpt: An ELISA assay was used to compare antigen binding sensitivity and specificity of hu6H5 vs. m6H5.

[8] = test system: ERVK6 and HERV-K envelope surface fusion protein; assay: immunoblot on HERV-K Env surface proteins; format: binding, human
HERV-K env protein = assay: antibody internalization; format: cell-based; settings: 37° C., 0, 5, 30, and 45 minutes; permeabilized cells
Protocol: To determine antibody internalization of humanized and murine antibodies, cells were incubated with HUM1 or m6H5 at 37° C. for different time intervals (0, 5, 30, and 45 minutes). At each time point, cells were fixed. Half of the cells were permeabilized and half were not permeabilized. Anti-human IgG 488 or anti-mouse IgG 488 was used to detect the percentages of antibody-bound HERV-K env protein that remained on the cell surface in the cells that were not permeabilized. A reduced surface expression of HERV-K positive cells was observed. The internalization of rate was determined in the cells that were permeabilized. The equation for the percentage of internalization at each point was 100−(% label at time 0).

MDA-MB-231 cells = assay: Live/dead cell viability assay; format: cell-based, human; settings: 10 μg/ml, sixteen hours
Protocol: Live/dead cell viability assays were used to assess induction of cell death after anti-HERV-K antibody treatment. MDA-MB-231 cells were seeded overnight in 24-well plates. Cells were treated with various antibodies (10 μg/ml) and incubated for sixteen hours at 37C in a cell culture incubator. Calcein Am (4 μl/10 ml media) and Eth-D1 (20 μl/10 ml media), 200 μl per well, were then added and cells were incubated for thirty minutes at room temperature. EthD-1 penetrates cells with membrane damage and binds to nucleic acids to produce red fluorescence in dead cells. Live cells (green color; Calcein Am) and putative dead cells (red color; EthD-1) were identified using the co-stained Live/Dead Viability Assay. Human IgG or mouse IgG were used control.

4T1pLVXKenv tumors = assay: 4T1pLVXKenv combination treatment, Treg cells; format: in vivo, mouse; settings: pLVXKenv vs pLVX; 6H5 once, IL2 for five days
Protocol: BALB/c mice were inoculated with 3×10^5 4T1pLVXKenv or 4T1pLVX cells on day 0. These mice were then treated: FIG. 23B with CpG (1.24 nmol), HERV-K SU protein (10 μg, 20 μg, and 20 μg), or CpG+ HERV-K SU protein on days 6, 13, and 19. Tumor weights were compared at week 4 post tumor cell inoculation; (FIG. 23C) with Aza (0.5 mg/kg) daily for five days in two weekly cycles, anti-PD-1 (200 μg per mouse every four days; four treatments), or Aza+anti-PD-1. Mice treated with PBS were used as controls, and tumor weights were compared among groups; and (FIG. 23D) with anti-HERV-K antibody (6H5; once) and with IL2 (for five days).

COc1cccc2c1C(=O)c1c(O)c3c(c(O)c1C2=O)C[C@@](O)(C(=O)CO)C[C@@H]3O[C@H]1C[C@H](N)[C@H](O)[C@H](C)O1 [doxorubicin]
sensitivity of breast cancer cells toward drug [1]: Enhanced sensitivity

Nc1ncn([C@@H]2O[C@H](CO)[C@@H](O)[C@H]2O)c(=O)n1 [5-Azacytidine]
expression of HERV-K [2]: Increased expression of HERV-K

OO [H2O2, Hydrogen Peroxide]
effect on shRNAenv-induced block in expression (breast cancer cell lines [3]; 5 μM, HERV-K KD cells): reversed the shRNAenv-induced block in expression of HERV-K, HIF-1α, P-RSK, and P-ERK in a time-dependent manner
expression at elevated concentrations (breast cancer cell lines [3]; 25 μM and 50 μM): decreased expression of HERV-K and corresponding decreased HIF-1a and Ras/ERK signaling
protein expression at graded concentrations (breast cancer cell lines [3]; 1-50 μM, three breast cancer cell lines): enhanced expression of HERV-K, Ras, p-ERK, and HIF-1a proteins at H2O2 concentrations of 5 μM and 10 μM
expression of HERV-K mRNA (breast cancer cell lines [3]; 5 M, 0 hours to 48 hours, three breast cancer cell lines): elevated expression of HERV-K mRNA
expression of HERV-K, p-MEK, and p-ERK by immunoblot (breast cancer cell lines [3]; 18 hours): enhanced expression of HERV-K, p-MEK, and p-ERK
expression of EMT markers (breast cancer cell lines [3]; MDA-MB-231 cells): Increased expression of EMT markers including N-cadherin, vimentin, and Slug, and decreased expression of E-Cadherin
expression of signaling proteins by immunoblot (breast cancer cell lines [3]): increased expression of the breast cancer relevant signaling proteins HIF-1α, HERV-K, p-RSK, p-ERK, ERK, and Ras
cell proliferation (breast cancer cell lines [4]; 5 μM, after 96 hours): Significantly increased cell proliferation
migration (breast cancer cell lines [4]; after 48 hours for MDA-MB-231 and after 72 hours for MCF-7): increased migration

Poly I:C
expression of HERV-K [2]: Increased expression of HERV-K

CC(=O)O[C@H]1C(=O)[C@@]2(C)[C@H]([C@H](OC(=O)c3ccccc3)[C@]3(O)C[C@H](OC(=O)[C@H](O)[C@@H](NC(=O)c4ccccc4)c4ccccc4)C(C)=C1C3(C)C)[C@]1(OC(C)=O)CO[C@@H]1C[C@@H]2O [paclitaxel]
sensitivity of breast cancer cells toward drug [1]: Enhanced sensitivity
cell proliferation ([1]; cells with HERV-K env KD by shRNAenv vs parent cells or shRNAc): Significantly reduced cell proliferation
migration and invasion [5]: Significantly reduced migration and invasion
cell cycle arrest [6]: G2 arrest
expression of signaling proteins by immunoblot (breast cancer cell lines [3]): increased expression of the breast cancer relevant signaling proteins HIF-1α, HERV-K, p-RSK, p-ERK, ERK, and Ras

B1: m6H5: murine anti-HERV-K monoclonal antibody (antibody, V domains shown)
VH: QVKLQQSGPDLVKPGASVKISCKASGYSFTGYYMHWVKQSHGKSLEWIGRVNPNSGGTSYNQKFKDKAILTVDKSSSTAYMELRSLTSEDSAVYYCARSKGNYFYAMDYWGQGTTVTVSS
VL: DIELTQSPASLAVSLGQRATISCRASESVDSHGTSFMHWYQQKPGQPPKFLIYRASNLESGIPARFSGSGSRTDFTLTINPVETDDVAIYYCQQSNEDPPTFGGGTKLEIK
binding detected by the inventors using ELISA or Western blot assays [7]: readily detected
binding by immunoblot to two HERV-K Env surface proteins [8]: shown by immunoblot to bind
internalized HERV-K positive cells (HERV-K env protein): increased expression of internalized HERV-K positive cells
dead cells (red fluorescence, EthD-1) (MDA-MB-231 cells): red fluorescent cells were observed
T regulatory (Treg) cells (4T1pLVXKenv tumors): Significantly decreased T regulatory (Treg) cells
